Reference: patent publication US10465171B2, “7β-hydroxysteroid dehydrogenases and their use” (PharmaZell GmbH, priority 2009, dated 2019)
Entries after “also recorded” stand apart in the source; their conditions may differ.

How the values were obtained:
[1] = biological target: T1, 7β-HSDH from Collinsella aerofaciens DSM 3979 (Collinsella aerofaciens, UniProt A4ECA9); test: Preparative biotransformation of 7-keto-LCA by 7β-HSDH with ADH cofactor regeneration, HPLC analysis; assay type: biochemical; settings: 0.4 g 7-keto-LCA, 100 U 7β-HSDH, 24° C., 24 hours, pH 8
Protocol: The conversion of 7-keto-LCA by 7β-HSDH was performed in order to verify the biochemical function of 7β-HSDH. 0.4 g of 7-keto-LCA were suspended in 10 ml of potassium phosphate buffer (50 mM, pH 8) and the pH was adjusted to pH 8 by addition of 2M sodium hydroxide. 0.2 ml of isopropanol, 100 U of 7β-HSDH and 80 U of alcohol dehydrogenase (ADH-TE) from Thermoanaerobacter ethanolicus (kindly donated by Dr. K. Momoi, ITB University, Stuttgart) and 1 μmol NADP^+ were added. The same buffer was added, so as to obtain a total reaction volume of 20 ml. The reaction mixture was incubated at 24° C. and stirred for 24 hours. During this, NADPH was regenerated by means of ADH via the oxidation of 2-propanol. […]
An HPLC analysis was performed on a column of the Purospher® STAR RP-18 type (Hitbar® RT 125-4 Pre-Packed Column, Purospher® STAR RP-18 endcapped, Merck, Germany), equipped with a precolumn of the LiChroCART® STAR RP18 type (endcapped, Merck, Germany) on an LC20AD HPLC system (Shimadzu, Japan) at a flow rate of 1 ml/min. […] 20 μl sample (1 mg/ml) were analyzed. […]
To confirm the function of the enzyme, a biotransformation of 7-keto-LCA on the […] was performed, wherein the isolated enzyme was used in combination with ADH for the regeneration of NADPH with the use of 2-propanol, as already described. […] CDCA (retention time 19.4 min) was not detected in the reaction mixture.

[2] = biological target: 7β-HSDH from Collinsella aerofaciens ATCC 25986 (DSM 3979) (Collinsella aerofaciens, UniProt A4ECA9); test: Photometric identification of 7β-HSDH activity (cell extract of E. coli expressing the candidate); assay type: biochemical; settings: 0.1 mM test substance, potassium phosphate buffer 50 mM pH 8, in the presence of NADP+ or NADPH
Protocol: The expression was performed in 50 ml of LB medium. For the preparation of preculture, one colony on an LB agar plate was picked and incubated overnight at 37° C. and 160 Rpm in 5 ml of LB medium (contains relevant antibiotics) a. The 50 ml of LB medium (contains relevant antibiotics) was inoculated with 500 pi of preculture. The culture was incubated at 37° C. and 160 Rpm. Up to OD600 ca. 0.8, expression was induced by addition of 0.5 mM IPTG. After 6 hrs or one night, the cells were centrifuged down. The pellets were resuspended in 6 ml of potassium phosphate buffer (50 mM, pH 8, contains 0.1 mM PMSF) and disintegrated with ultrasound. The cell fragments were removed by centrifugation.
For the identification of 7β-HSDH activity the activity was tested by photometric methods. For this, enzyme and 0.1 mM of test substance (UDCA) in potassium phosphate buffer (50 mM, pH 8) were mixed in a 1 ml cuvette. After addition of NADPH(NADH) or NADP^+ (NAD^+), the degradation or formation of NAD(P)H was measured.

[3] = biological target: T1, 7β-HSDH from Collinsella aerofaciens DSM 3979; assay type: biochemical
[4] = system: 7β-HSDH enzyme from C. aerofaciens ATCC25986 described by Hirano et al; parameters: unit not given here; settings: enzyme of Hirano et al; cited from earlier work

Sequence of 7β-HSDH from Collinsella aerofaciens ATCC 25986 (DSM 3979) (A4ECA9 whole entry): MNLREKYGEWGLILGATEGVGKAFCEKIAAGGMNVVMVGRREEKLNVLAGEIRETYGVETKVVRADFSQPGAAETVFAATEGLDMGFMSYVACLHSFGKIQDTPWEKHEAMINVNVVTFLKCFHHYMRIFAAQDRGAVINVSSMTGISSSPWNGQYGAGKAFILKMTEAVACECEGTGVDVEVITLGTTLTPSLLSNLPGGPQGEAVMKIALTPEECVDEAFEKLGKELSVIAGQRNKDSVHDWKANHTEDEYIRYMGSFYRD
T1 sequence (A4ECA9 whole entry): as above

| Molecule | activity [2] | kcat [3] | other results |
| --- | --- | --- | --- |
| C[C@H](CCC(=O)O)[C@H]1CC[C@H]2[C@@H]3C(=O)C[C@@H]4C[C@H](O)CC[C@]4(C)[C@H]3CC[C@]12C [7-keto-LCA, 7-keto-lithocholic acid] | 35 U/ml | – | conversion to UDCA [1]: 90% |
| C[C@H](CCC(=O)O)[C@H]1CC[C@H]2[C@@H]3[C@H](O)C[C@@H]4C[C@H](O)CC[C@]4(C)[C@H]3C[C@H](O)[C@]12C [CA, Cholic acid] | no activity; also recorded: not detectable | – | – |
| C[C@H](CCC(=O)O)[C@H]1CC[C@H]2[C@@H]3C(=O)C[C@@H]4CC(=O)CC[C@]4(C)[C@H]3CC(=O)[C@]12C [DHCA, Dehydrocholic acid] | 119 U/ml | – | – |
| NC(=O)C1=CN([C@@H]2O[C@H](COP(=O)(O)OP(=O)(O)OC[C@H]3O[C@@H](n4cnc5c(N)ncnc54)[C@H](O)[C@@H]3O)[C@@H](O)[C@H]2O)C=CC1 [NADH] | – | traces | activity as coenzyme [3]: very low activity |
| NC(=O)c1ccc[n+]([C@@H]2O[C@H](COP(=O)([O-])OP(=O)(O)OC[C@H]3O[C@@H](n4cnc5c(N)ncnc54)[C@H](OP(=O)(O)O)[C@@H]3O)[C@@H](O)[C@H]2O)c1 [NADP^+] | – | – | Vmax [4]: 0.2; Vmax [3]: 30.58 U/mg protein |
| NC(=O)c1ccc[n+]([C@@H]2O[C@H](COP(=O)([O-])OP(=O)(O)OC[C@H]3O[C@@H](n4cnc5c(N)ncnc54)[C@H](O)[C@@H]3O)[C@@H](O)[C@H]2O)c1 [NAD^+] | – | traces | activity as coenzyme [3]: very low activity |
| C[C@H](CCC(=O)O)[C@H]1CC[C@H]2[C@@H]3[C@@H](O)C[C@@H]4C[C@H](O)CC[C@]4(C)[C@H]3CC[C@]12C [UDCA, Ursodeoxycholic acid] | 60 U/ml | – | – |
| NADPH | – | 1033.44 1 μmol/(μmol × min) | Vmax [3]: 33.44 U/mg protein |
